Values after ≈ are worked out from the molar mass of the structure shown.

For one test, the system named is P. aeruginosa ATCC 27853. Nature of the test: MIC, broth micro-dilution. It counts as cell-based, Pseudomonas aeruginosa. The conditions noted are these: Pseudomonas aeruginosa, ATCC27853, read-out: MIC, Single Drug. As to the method: (§1) A variety of Gram-negative reference strains (E. coli ATCC 25922, E. coli ATCC 10763, P. aeruginosa PAO1, P. aeruginosa ATCC 27853, A. baumannii ATCC 12457, A. baumannii ATCC 19606, K. pneumoniae ATCC 4352 and K. pneumoniae ATCC 33495) were used for initial screening and combination testing with PMB. The organisms were speciated using biochemical testing and MALDI-TOF mass spectrometry (Bruker, Preston, VIC, Australia). Activity testing of NCL259 and NCL265 was also carried out on 51 extraintestinal clinical E. coli isolates from companion animals, and 83 porcine and bovine enterotoxigenic E. coli (ETEC) isolates from the Australian Centre for Antimicrobial Resistance Ecology collection. E. coli wild-type (BW 25113) and its mutant BW 25113∆AcrB, in which the inner membrane component AcrB of the tripartite multidrug efflux system AcrA/AcrB/TolC has been deleted, were obtained from the bacterial collection held at Health and Biomedical Innovation, Clinical and Health Sciences, The University of South Australia. All isolates were cultured on sheep blood agar (SBA) plates at 37 °C for 18 h before being subcultured into Luria Bertaini (LB) (Oxoid, Scoresby, VIC, Australia) broth and grown to A600nm = 0.5 (equivalent to approx. 1.5 × 10^8 colony-forming units (CFU)/mL).
(§2) MICs for NCL259 and NCL265 (serial two-fold dilutions commencing at 256 µg/mL) were determined (in duplicate) in round bottom 96–well microtitre trays (Sarstedt 82.1582.001), using the broth micro-dilution method recommended by the Clinical and Laboratory Standards Institute (CLSI). We have shown previously that robenidine can chelate calcium ions from cation-adjusted Mueller-Hinton broth, which causes the loss of activity of robenidine. Therefore, LB broth was used in this study. Additionally, considering the low solubility of robenidine and its analogues in aqueous solutions, two-fold serial dilutions of stock solutions of these compounds were prepared in 100% DMSO [21]. The MIC for ampicillin against each isolate was determined for each test to serve as an internal quality control. The MICs of isolates were determined by visual reading and using an EnSpire Multimode Plate Reader 2300 at A600nm.

The next test has as its system P. aeruginosa PAO1. Nature of the test: MIC, broth micro-dilution. The format is cell-based, Pseudomonas aeruginosa. The conditions noted are these: Pseudomonas aeruginosa, read-out: MIC, Single Drug. As to the method:
as §1, §2
(Broth dilution looks for growth in wells or tubes with falling amounts of substance.)

For test [1], the system named is Porcine/bovine ETEC (n = 83). Nature of the test: MIC, broth micro-dilution, clinical isolates. It counts as cell-based, Escherichia coli. The conditions noted are these: for MIC50 / MIC90: Escherichia coli; for MIC range: Porcine/bovine ETEC (n = 83). On the procedure: as §1, §2
The test system of test [2] is Hep G2 (human hepatocellular carcinoma cell line). Nature of the test: In vitro cytotoxicity, WST-1. The format is cell-based. The conditions noted are these: HepG2, 24 h. The text has this:
(§3) Potential toxicity of NCL259 and NCL265 to mammalian cells relative to the parent compound (NCL812) was examined using Caco-2 (human colorectal adenocarcinoma cell line), HEL 299 (non-cancerous human lung fibroblast cell line), Hep G2 (human hepatocellular carcinoma cell line), MCF-7 (human mammary gland adenocarcinoma cell line), MDBK (normal Madin–Darby bovine kidney cell line) and Vero (normal adult African green monkey cell line), essentially as described previously. Toxicity to the cell lines was performed using serial two-fold dilutions of each compound from 128 to 1 μg/mL in duplicates in flat bottom 96 well tissue culture trays (Sarstedt 83.3924) containing approximately 2 × 10^4 cells per well in antibiotic-free Dulbecco’s Modified Eagle’s Medium (DMEM; Gibco Cat No: 12430; Thermo Fisher Scientific, Scoresby, VIC, Australia) consisting of 10% (v/v) fetal bovine serum at 37 °C, 5% CO2 for 24 h. Duplicate wells containing ampicillin at 128 to 1 μg/mL were used as controls. Thereafter, 10% (v/v) of the WST-1 cell proliferation assay reagent (Cat No: 05015944001; Roche Life Science, North Ryde, NSW, Australia) was added to each well, the trays were further incubated at 37 °C, 5% CO2 for 1 h and absorbance read at A450nm on a Multiskan Ascent 354 Spectrophotometer (Labsystems, Lilydale, VIC, Australia). The inhibitory concentration of each compound was determined as the half maximal inhibitory concentration (IC50) at A450nm.
On the technique in general: Tetrazolium assays rely on reduction of a dye to a coloured formazan, in cell work by metabolically active cells.

The subject of test [3] is MDBK (normal Madin–Darby bovine kidney cell line). Nature of the test: In vitro cytotoxicity, WST-1. The format is cell-based. The conditions noted are these: Bos taurus, 24 h.
Excerpt: as §3

Test [4] concerns K. pneumoniae 13GNB–429, K. pneumoniae 13GNB–550 and K. oxytoca 13GNB–582. The test is described as follows: MIC in presence of PAβN, three resistant Klebsiella isolates. The format is cell-based. The conditions noted are these: three resistant Klebsiella spp. isolates. On the procedure:
MICs of NCL259 or NCL265 in the presence of the efflux pump inhibitor, PAβN were determined using a checkerboard assay. […] Briefly, a two-fold serial dilution of each antimicrobial solution was prepared in its appropriate solvent (e.g., DMSO for robenidine analogues and Milli-Q water for PAβN), and 1 μL of each dilution was added from wells 12 to 3 (12.8–0.25 μg/mL for robenidine analogues, and 32–2 μg/mL for PAβN). Thereafter, 89 μL of LB broth was added to each well followed by the addition of 10 μL of bacterial suspension (1–5 × 10^6 CFU/mL) to each well. In this manner, the final concentration of DMSO in each well was 1%. The plate was subsequently incubated at 37 °C for 24 h. The resazurin assay was used for assessment of drug susceptibility of NCL259 and NCL265 (Supplementary Table S1–S6). The same method was also used to test the MICs of NCL259 or NCL265 in the presence of PMB against a range of Gram-negative reference strains (E. coli ATCC 25922, E. coli ATCC 10763, P. aeruginosa PAO1, P. aeruginosa ATCC 27853, A. baumannii ATCC 12457, A. baumannii ATCC 19606, K. pneumoniae ATCC 4352 and K. pneumoniae ATCC 33495). Stock solutions were prepared prior to use (25.6–0.25 mg/mL for robenidine analogues; 12.8–0.25 mg/mL for PMB). The interaction of two antibiotics was calculated as the fractional inhibitory concentration index (FICI) using the following formula:(1) FICI=MICA in combination/MICA alone+MICB in combination/MICB alone where A is NCL259 or NCL265 and B is PAβN or PMB. According to FICI calculations, the interaction between two compounds were interpreted as follows: synergistic (FICI ≤ 0.5); additive or partially synergistic (0.5 < FICI ≤ 1); indifferent (1 < FICI ≤ 4); and antagonistic (FICI > 4), as described previously. The dose reduction index (DRI) was used to describe the difference between the effective doses of NCL259 or NCL265 in combination with PMB or PAβN in comparison to their individual doses, using the following formula:(2) DRI=MICA alone/MICA in combination

Where [5] appears, read: first of two independent experiments.
[6] abbreviates: second of two independent experiments.

In the case of `[H]/N=C(\N)NN=C(CC1CCCCC1)c1ccc(Cl)cc1` [NCL259, (E)-2-(1-(4-chlorophenyl)-2-cyclohexylethylidene)hydrazine-1-carboximidamide], the MIC in the test with P. aeruginosa ATCC 27853 and with P. aeruginosa PAO1 was 64 µg/mL each time. Moreover, the MIC50 in test [1] was determined as 8 µg/mL. Also, the MIC90 in test [1] came to 8 µg/mL. Also, in test [1], the “MIC range” value was 4 to 64 µg/mL. For the same molecule, the IC50 was below 1 µg/mL in test [2] (setting [5]), below 1 µg/mL in test [2] (setting [6]), 2 µg/mL (≈ 6.83 µM) in test [3] (setting [5]) and 2 µg/mL (≈ 6.83 µM) in test [3] (setting [6]). Also, the “MIC in the presence of PAβN” value in test [4] lay in the range of 8 to 16 µg/mL. Besides, the “reduction of MIC in the presence of PAβN” value in test [4] was 16- to 32 fold.
Regarding `[H]/N=C(\N)NN=C(CCCCCC)c1ccc(Cl)cc1` [NCL265, (E)-2-(1-(4-chlorophenyl)heptylidene)hydrazine-1-carboximidamide], the results for the MIC in the test on P. aeruginosa ATCC 27853 and in the test with P. aeruginosa PAO1 were 32 µg/mL and 64 µg/mL, respectively. Further, in test [1], the MIC50 was 8 µg/mL. Moreover, the MIC90 in test [1] amounted to 8 µg/mL. In addition, in test [1], the “MIC range” value was 2 to 16 µg/mL. In addition, the IC50 in test [2] (setting [5]) was below 1 µg/mL; in test [2] (setting [6]) it was below 1 µg/mL; in test [3] (setting [5]), 3 µg/mL (≈ 10.7 µM); in test [3] (setting [6]), 2 µg/mL (≈ 7.12 µM). In test [4], the “MIC in the presence of PAβN” value is 2 to 4 µg/mL. For the same molecule, in test [4], the “reduction of MIC in the presence of PAβN” value was 64- to 128 fold.

A word on the MIC: it is the lowest concentration found to suppress growth. The MIC50 is the lowest concentration that inhibits either 50% of growth or 50% of the strains tested, depending on the study. What is called MIC90 is the lowest concentration that inhibits either 90% of growth or 90% of the strains tested, depending on the study. The IC50 is the midpoint of a concentration-inhibition curve.

Values taken from PMC9598656, “In Vitro Activity of Robenidine Analogues NCL259 and NCL265 against Gram-Negative Pathogens” (Antibiotics, 2022).
